Data from patent US20010012893A1, “Acyclovir diester derivatives” (Drug Innovation & Design, Inc., priority 1997, published 2001).
Entries after “also recorded” stand apart in the source; their conditions may differ.

How the values were obtained:
[1] = test system: HSV-1; test: Dermal HSV-1 infection in guinea pigs, topical treatment, compared with placebo/vehicle; assay type: in vivo; conditions: guinea pig; for reduction in lesion area (in words) / reduction in lesion number (in words) / reduction in lesion virus titer / skin viral titres (in words): dermal HSV-1, topical, compared to vehicle or to Prodrug 1
Experimental: The formulation for Prodrug 1 contained 5% EL-620 EMULPHOR (polyoxyethylated castor oil) (Rhone Poluenc), 5% CARBOPOL (Carboxypolymethylene, sodium salt) (B. F. Goodrich), 10% ethanol and 2% by weight Prodrug 1. The balance of the formulation consisted of water.
EL-620 EMULPHOR and water were mixed and ultrasonicated to give a clear emulsion, to which the ethanol was added. The prodrug was then added, and the mixture was ultrasonicated. The sodium carbopol was then added to the emulsion and mixed until to homogeneity.
The placebo was prepared identically to the pharmaceutical compositions except that the prodrugs were omitted.
Female Hartley outbred guinea pigs, 400 to 450 grams, were obtained from Charles River Breeding Labs, Wilmington, Mass. Animals were anesthetized with 25 mg/kg ketamine and 5 mg/kg xylazine SQ. Hair on the dorsum from the shoulders to the rump was removed with electric clippers followed by two 5-10 minute applications of a chemical depilatory. A grid of four areas was demarcated with a pen on both sides of the spine at levels corresponding to mid back and rump.
Undiluted HSV-1 virus stock (0.035 ml) was applied to each different area and introduced through the skin at well-spaced sites at ten activations of a six-pronged spring-loaded vaccination instrument (Sterneedle, Pan Ray Division, Ormont Drug, Englewood, N.J.). The day of inoculation is Day 0. Approximately 250 mg of drug or placebo was applied to the areas according to the dosing regimen on Days 1, 2 and 3. Eight guinea pigs were used during the experiments allowing eight comparisons between each drug and its placebo.
On Day 4 regrown hair on the dorsum of the guinea pigs was removed with one 3-4 minute application of a chemical depilatory. HSV lesions were counted and Polaroid pictures of the animals' backs were taken. The animals were sacrificed using CO2 gas and the full thickness skin of the back was removed by dissection. The square of the skin from each of the four treatment areas was placed into 15 mls of tissue culture medium with 2% FBS in an ice bath. The samples were then homogenized in a stomacher Lab Blender 80 (Tekmar Co.). Debris was pelleted by centrifugation and the supernatants collected and frozen at −70° C. until assay for infectivity by plaque formation in VERO cells.
The mean and standard deviation for number of lesions, total lesion area and lesion virus titer were computed. Paired data (drug/vehicle) were evaluated by the Wilcoxon signed-rank test using percent differences between log10 derivatives of mean lesions severity at drug-treated sites compared to the vehicle-treated sites.
Prodrug 2 was formulated as described in Example 1. One Hartley guinea pig was inoculated with HSV-1 as described in Example 1. The guinea pig was treated with Prodrug 2 according to the protocol used in Example 1 for Prodrug 1.

[2] = test system: herpes simplex labialis; conditions: cited from earlier work
[3] = test system: pig liver esterase; test: Incubation with pig liver esterase in phosphate buffered D2O, followed by NMR; assay type: in vitro ADME
Excerpt: This assay is described in Glazier, WO 91/19721 entitled “Phosphorus Prodrugs” and can be used to determine suitable hydroxyl or amino protecting groups which can be cleaved in vivo. The entire teachings of […] are incorporated herein by reference. It is to be understood that there are other in vitro assays known to one of ordinary skill in the art employing esterases, amidases or enzymes capable of cleaving carbonate, carbamate, ester and amide groups which can also be used to determine suitable protecting groups.

[4] = dermal HSV-1, topical 2% formulation, Days 1-3, read Day 4, p<0.01

SMILES	reduction in lesion area (in words) [1]	reduction in lesion number (in words) [1]	reduction in lesion virus titer / skin viral titres (in words) [1]	effectiveness of oral administration for cold sores ([2]; oral)	response of cold sores to topical treatment ([2]; topical)	reduction in lesion area compared with placebo [1, 4] [%]	reduction in lesion number compared with placebo [1, 4] [%]	reduction in skin viral titres compared with placebo ([1]; dermal HSV-1, topical 2% formulation, Days 1-3, read Day 4, plaque formation in VERO cells, p<0.01) [%]	degradation products with esterase [3]
COC(=O)CC(OP(=O)([O-])OCCOCn1cnc2c(=O)[nH]c(N)nc21)c1ccc(OC(C)=O)cc1.[Na+] (stereo not drawn) [Prodrug 2]	comparable reduction; also recorded: dramatic reduction	comparable reduction; also recorded: dramatic reduction	comparable reduction; also recorded: dramatic reduction						
Nc1nc2c(ncn2COCCO)c(=O)[nH]1 [acyclovir]				only partially effective	do not respond				
COC(=O)CC(OP(=O)([O-])OCCOCn1cnc2c(=O)[nH]c(N)nc21)c1ccc(OC(=O)C(C)(C)C)cc1.[Na+] (stereo not drawn) [Prodrug 1]	dramatic reduction	dramatic reduction	dramatic reduction			79	72	93	degraded to acyclovir monophosphate and p-hydroxycinnamic
